From ChEMBL document CHEMBL1201862, “PubChem BioAssay data set” (2004)
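Each compound was tested at five concentrations against cells in 96-well plates for 48 hours. The concentration for 50% growth inhibition is given as GI50.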 The source made the active and inactive calls. Rule as the data show it: active = GI50 up to about 1.1 µM and inactive = higher.

Columns and labels:
Assay in all cases: NCI-60 cell line screen, 48 h
KM12 = system: KM12
K562 = system: K562
COLO 205 = system: COLO 205
UACC-62 = system: UACC-62
OVCAR-4 = system: OVCAR-4
HCC 2998 = system: HCC 2998
HOP-62 = system: HOP-62
NCI/ADR-RES = system: NCI/ADR-RES
SNB-75 = system: SNB-75
NCI-H226 = system: NCI-H226
UO-31 = system: UO-31
MCF7 = system: MCF7
SR = system: SR
LOX IMVI = system: LOX IMVI
A549 = system: A549
U-251 = system: U-251
RPMI-8226 = system: RPMI-8226
SNB-19 = system: SNB-19
RXF 393 = system: RXF 393
SF-295 = system: SF-295

SMILES	GI50 (KM12)	GI50 (K562)	GI50 (COLO 205)	GI50 (UACC-62)	GI50 (OVCAR-4)	GI50 (HCC 2998)	GI50 (HOP-62)	GI50 (NCI/ADR-RES)	GI50 (SNB-75)	GI50 (NCI-H226)	GI50 (UO-31)	GI50 (MCF7)	GI50 (SR)	GI50 (LOX IMVI)	GI50 (A549)	GI50 (U-251)	GI50 (RPMI-8226)	GI50 (SNB-19)	GI50 (RXF 393)	GI50 (SF-295)
C[N+]12CCCCC1C(COc1cccc3cccnc13)CCC2 (stereo not drawn)	> 100 µM (inactive)	77.4 µM (inactive)	> 100 µM (inactive)	> 100 µM (inactive)	> 100 µM (inactive)	> 100 µM (inactive)	72.9 µM (inactive)	> 100 µM (inactive)	> 100 µM (inactive)	59.6 µM (inactive)	> 100 µM (inactive)	> 100 µM (inactive)	> 100 µM (inactive)	93.5 µM (inactive)	> 100 µM (inactive)	> 100 µM (inactive)	34.4 µM (inactive)	> 100 µM (inactive)	> 100 µM (inactive)	> 100 µM (inactive)
Oc1c2c(nc3cc4c(cc13)OCO4)-c1ccccc1CCC2	> 50 µM (inactive)	> 50 µM (inactive)	> 50 µM (inactive)	> 50 µM (inactive)	30.2 µM (inactive)	> 50 µM (inactive)	> 50 µM (inactive)	> 50 µM (inactive)	> 50 µM (inactive)	> 50 µM (inactive)	> 50 µM (inactive)	26.5 µM (inactive)	12.3 µM (inactive)	43.3 µM (inactive)	> 50 µM (inactive)	> 50 µM (inactive)	> 50 µM (inactive)	> 50 µM (inactive)	> 50 µM (inactive)	17.1 µM (inactive)
COc1cc(OCc2ccc3nc(-c4ccccc4)c(N)nc3c2)cc(OC)c1OC	18.6 µM (inactive)	15.5 µM (inactive)	16.5 µM (inactive)	13.4 µM (inactive)	13.8 µM (inactive)	35 µM (inactive)	–	20.7 µM (inactive)	19.2 µM (inactive)	21.3 µM (inactive)	10.7 µM (inactive)	22 µM (inactive)	17.9 µM (inactive)	13.7 µM (inactive)	20.6 µM (inactive)	32.5 µM (inactive)	8.79 µM (inactive)	24.2 µM (inactive)	23.1 µM (inactive)	26 µM (inactive)
COc1cccc(OC)c1/C=C1\OC(=O)c2cccc(OC)c21	1.74 µM (inactive)	0.527 µM (active)	2.88 µM (inactive)	2.62 µM (inactive)	> 30.1 µM (inactive)	3.16 µM (inactive)	5.62 µM (inactive)	3.51 µM (inactive)	2.96 µM (inactive)	3.84 µM (inactive)	5.47 µM (inactive)	3.14 µM (inactive)	0.92 µM (active)	6.28 µM (inactive)	7.36 µM (inactive)	3.32 µM (inactive)	3.46 µM (inactive)	4.74 µM (inactive)	4.61 µM (inactive)	3.13 µM (inactive)
O=C(NNC(=O)c1ccccc1O)c1ccccc1O	0.413 µM (active)	< 0.0221 µM (active)	0.355 µM (active)	0.0495 µM (active)	0.0621 µM (active)	0.0519 µM (active)	2.31 µM (inactive)	0.0791 µM (active)	0.0565 µM (active)	0.873 µM (active)	0.022 µM (active)	0.43 µM (active)	0.0366 µM (active)	0.0918 µM (active)	0.0361 µM (active)	0.116 µM (active)	0.326 µM (active)	0.0525 µM (active)	0.0514 µM (active)	0.189 µM (active)
COC(=O)c1c(OC(C)=O)ccc2c1c1c(n2C)C(=O)c2ccccc2C1=O	29.1 µM (inactive)	66.2 µM (inactive)	55.3 µM (inactive)	35.3 µM (inactive)	28.6 µM (inactive)	26.8 µM (inactive)	17.3 µM (inactive)	33.9 µM (inactive)	7.93 µM (inactive)	38.9 µM (inactive)	21 µM (inactive)	18.7 µM (inactive)	31.1 µM (inactive)	–	20.7 µM (inactive)	31.3 µM (inactive)	8.15 µM (inactive)	33.7 µM (inactive)	37.1 µM (inactive)	21.5 µM (inactive)
O=C(N/N=C/c1ccc([N+](=O)[O-])cc1)Nc1ccc(Br)cc1	> 100 µM (inactive)	54 µM (inactive)	63.2 µM (inactive)	15.3 µM (inactive)	49 µM (inactive)	26.5 µM (inactive)	32.9 µM (inactive)	49.2 µM (inactive)	> 100 µM (inactive)	> 100 µM (inactive)	> 100 µM (inactive)	34 µM (inactive)	43.2 µM (inactive)	51.1 µM (inactive)	> 100 µM (inactive)	69.3 µM (inactive)	28.1 µM (inactive)	76.4 µM (inactive)	> 100 µM (inactive)	> 100 µM (inactive)
COC(=O)C1Cc2cccc(C)c2C1 (stereo not drawn)	> 100 µM (inactive)	48.4 µM (inactive)	> 100 µM (inactive)	> 100 µM (inactive)	> 100 µM (inactive)	> 100 µM (inactive)	> 100 µM (inactive)	62.2 µM (inactive)	> 100 µM (inactive)	> 100 µM (inactive)	> 100 µM (inactive)	19.1 µM (inactive)	79.3 µM (inactive)	42 µM (inactive)	> 100 µM (inactive)	89.3 µM (inactive)	93.5 µM (inactive)	> 100 µM (inactive)	> 100 µM (inactive)	> 100 µM (inactive)
O=P(O)(O)c1ccc(-c2ccc(I)cc2)cc1	> 100 µM (inactive)	> 100 µM (inactive)	> 100 µM (inactive)	> 100 µM (inactive)	> 100 µM (inactive)	> 100 µM (inactive)	> 100 µM (inactive)	> 100 µM (inactive)	65 µM (inactive)	> 100 µM (inactive)	> 100 µM (inactive)	> 100 µM (inactive)	> 100 µM (inactive)	> 100 µM (inactive)	> 100 µM (inactive)	> 100 µM (inactive)	> 100 µM (inactive)	> 100 µM (inactive)	13.5 µM (inactive)	> 10 µM (inactive)
COc1cc2c(cc1OC)C1=CCC(c3ccccc3)[N+]1(C)CC2 (stereo not drawn)	> 100 µM (inactive)	> 100 µM (inactive)	> 100 µM (inactive)	> 100 µM (inactive)	> 100 µM (inactive)	> 100 µM (inactive)	–	> 100 µM (inactive)	> 100 µM (inactive)	> 100 µM (inactive)	> 100 µM (inactive)	> 100 µM (inactive)	> 100 µM (inactive)	> 100 µM (inactive)	> 100 µM (inactive)	> 100 µM (inactive)	> 100 µM (inactive)	> 100 µM (inactive)	> 100 µM (inactive)	> 100 µM (inactive)
CCn1c(=O)c2nc(SC)sc2n(-c2ccccc2)c1=O	> 100 µM (inactive)	> 100 µM (inactive)	> 100 µM (inactive)	–	> 100 µM (inactive)	> 100 µM (inactive)	> 100 µM (inactive)	> 100 µM (inactive)	> 100 µM (inactive)	> 100 µM (inactive)	26 µM (inactive)	> 100 µM (inactive)	> 100 µM (inactive)	> 100 µM (inactive)	> 100 µM (inactive)	> 100 µM (inactive)	> 100 µM (inactive)	> 100 µM (inactive)	> 100 µM (inactive)	> 100 µM (inactive)
CCC[C@H]1C(=O)N=C(N)N1C(=O)OCc1ccccc1	> 100 µM (inactive)	> 100 µM (inactive)	> 100 µM (inactive)	> 100 µM (inactive)	> 100 µM (inactive)	> 100 µM (inactive)	> 100 µM (inactive)	> 100 µM (inactive)	> 100 µM (inactive)	> 100 µM (inactive)	86.9 µM (inactive)	> 100 µM (inactive)	> 100 µM (inactive)	> 100 µM (inactive)	–	> 100 µM (inactive)	> 100 µM (inactive)	> 100 µM (inactive)	> 100 µM (inactive)	> 100 µM (inactive)
CCOC(=O)C1(C#N)C2(C#N)C(N)=NC(ON=C(C)C)(ON=C(C)C)C12C#N (stereo not drawn)	> 100 µM (inactive)	> 100 µM (inactive)	> 100 µM (inactive)	> 100 µM (inactive)	> 100 µM (inactive)	> 100 µM (inactive)	> 100 µM (inactive)	> 100 µM (inactive)	–	> 100 µM (inactive)	> 100 µM (inactive)	> 100 µM (inactive)	> 100 µM (inactive)	> 100 µM (inactive)	> 100 µM (inactive)	> 100 µM (inactive)	> 100 µM (inactive)	> 100 µM (inactive)	> 100 µM (inactive)	> 100 µM (inactive)
Nn1c(SCC(=O)NCc2ccccc2)nc2ccccc2c1=O	> 100 µM (inactive)	27.8 µM (inactive)	48.5 µM (inactive)	41.6 µM (inactive)	54.2 µM (inactive)	44.8 µM (inactive)	–	36.5 µM (inactive)	> 100 µM (inactive)	79.1 µM (inactive)	43.9 µM (inactive)	52.1 µM (inactive)	21.1 µM (inactive)	49 µM (inactive)	31.3 µM (inactive)	88.9 µM (inactive)	40.8 µM (inactive)	67 µM (inactive)	34.1 µM (inactive)	48.6 µM (inactive)
